Results on 10 molecules are retold here after US11369599B2, “Melt-extruded solid dispersions containing an apoptosis-inducing agent” (AbbVie Inc., priority 2014, dated 2022).

The nature of data set [1]: First-in-human Phase 1 study (safety, PK) in relapsed or refractory CLL. It counts as in vivo. Particulars: for AUC(0-inf): read-out: AUC (AUCINF). The protocol: Three subjects were enrolled in the first cohort of CLL arm.
Subject 1: bulky disease, initial dose=200 mg
Subject 2: non-bulky disease, initial dose=200 mg
Subject 3: bulky disease, initial dose=100 mg
The dosing scheme for CLL arm was as follows: single dose on Week 1 Day −3; QD dose started on Week 1 Day 1. PK sampling was done on Week 1 Day −3 and Week 3 Day 1.

The target of a further data set is Bcl-2 protein (Homo sapiens (Human), UniProt P10415). The data set is described as follows: TR-FRET (Time-Resolved Fluorescence-Resonance-Energy-Transfer) Bcl-2 binding assay. An excerpt: The smaller the Ki value, the greater is the binding affinity.
Sequence of Bcl-2 protein (P10415 whole entry): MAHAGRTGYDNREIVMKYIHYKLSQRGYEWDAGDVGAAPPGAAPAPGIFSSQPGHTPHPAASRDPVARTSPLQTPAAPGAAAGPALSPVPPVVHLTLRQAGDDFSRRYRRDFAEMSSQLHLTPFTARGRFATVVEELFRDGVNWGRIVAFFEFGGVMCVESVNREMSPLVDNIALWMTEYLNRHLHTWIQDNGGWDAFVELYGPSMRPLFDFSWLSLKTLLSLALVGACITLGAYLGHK
Data set [2] in a line: log D at pH 7.4 by an HPLC method. It counts as physicochemical.
The mark [3] stands for this setting: human CLL, Week 1 Day-3 single dose, Mean of 3 subjects.
Setting [4] is: human CLL, Week 1 Day-3 single dose, Subject 1, 200 mg.
Setting [5] is: human CLL, Week 1 Day-3 single dose, Subject 2, 200 mg.
The mark [6] stands for this setting: human CLL, Week 1 Day-3 single dose, Subject 3, 100 mg.
The mark [7] stands for this setting: human CLL, Week 3 Day 1, QD dosing, ID 101, 150 mg.
[8] abbreviates: human, plasma, oral, 100 mg, human CLL, Week 1 Day-3 single dose, Subject 3, 100 mg.
[9] abbreviates: human, plasma, oral, 200 mg, human CLL, Week 1 Day-3 single dose, Subject 1, 200 mg.
The mark [10] stands for this setting: human, plasma, oral, 200 mg, human CLL, Week 1 Day-3 single dose, Subject 2, 200 mg.

Like-named read-outs stand apart in the source and are kept apart here.

By CL/F is commonly meant clearance divided by bioavailability, as obtained after extravascular dosing. One may read the Tmax as the time at which the peak concentration occurs. Usually Cmax stands for the highest concentration seen after dosing. As a reminder, the AUC is concentration integrated over time. On to `CC1(C)CCC(CN2CCN(c3ccc(C(=O)NS(=O)(=O)c4ccc(NCC5CCOCC5)c([N+](=O)[O-])c4)c(Oc4cnc5[nH]ccc5c4)c3)CC2)=C(c2ccc(Cl)cc2)C1` [Compound 5, 4-(4-{[2-(4-chlorophenyl)-4,4-dimethylcyclohex-1-en-1-yl]methyl}piperazin-1-yl)-N-({3-nitro-4-[(tetrahydro-2H-pyran-4-ylmethyl)amino]phenyl}sulfonyl)-2-(1H-pyrrolo[2,3-b]pyridin-5-yloxy)benzamide], for which the apparent clearance (CL/F) was found to be 4.7 L/h in data set [1] (setting [3]); 8.6 L/h in data set [1] (setting [4]); 2.6 L/h in data set [1] (setting [5]); 2.8 L/h in data set [1] (setting [6]); 7.1 L/h in data set [1] (setting [7]). Besides, the Cmax/Dose in data set [1] (setting [3]) is 0.008 (μg/mL)/mg; in data set [1] (setting [4]), 0.0037 (μg/mL)/mg; in data set [1] (setting [5]), 0.0079 (μg/mL)/mg; in data set [1] (setting [6]), 0.0119 (μg/mL)/mg; in data set [1] (setting [7]), 0.0089 (μg/mL)/mg. Further, the Tmax amounted to 6 h in data set [1] (human CLL, Week 1 Day-3 single dose, Subject 1, 200 mg, 50 mg tablets); 8 h in data set [1] (setting [7]); 7.3 h in data set [1] (plasma, oral, human CLL, Week 1 Day-3 single dose, Mean of 3 subjects, read-out: Tmax). Also, in data set [1] (human subjects), the “time to reach Cmax” value is “around 7 hours”. In addition, the “predicted AUC” value in data set [1] (human, 200 mg dose, predicted) is 30000 ng·h/mL. In addition, the “observed AUC versus predicted AUC” value in data set [1] (human, normalized to 200 mg dose) was “about 2 fold”. In addition, the Cmax amounted to 1190 ng/mL in data set [1] (setting [8]); 1340 ng/mL in data set [1] (human, plasma, oral, 150 mg, human CLL, Week 3 Day 1, QD dosing, ID 101, 150 mg); 730 ng/mL in data set [1] (setting [9]); 1570 ng/mL in data set [1] (setting [10]). The values for the AUC(0-inf) in data set [1] (setting [8]), in data set [1] (setting [9]) and in data set [1] (setting [10]) were 36300 ng·h/mL, 23300 ng·h/mL and 76000 ng·h/mL, respectively. The half-life in data set [1] (human, plasma, oral, 100 mg, human CLL, Week 1 Day-3 single dose, Subject 3, 100 mg, read-out: t1/2 (converted)) is 22.1 h; in data set [1] (human, plasma, oral, 200 mg, human CLL, Week 1 Day-3 single dose, Subject 1, 200 mg, read-out: t1/2 (converted)) it was 30.6 h; in data set [1] (human, plasma, oral, 200 mg, human CLL, Week 1 Day-3 single dose, Subject 2, 200 mg, read-out: t1/2 (converted)), 50.9 h; in data set [1] (human, plasma, oral, human CLL, Week 1 Day-3 single dose, Harmonic Mean of 3 subjects, read-out: t1/2 (converted)) it was 30.7 h; in data set [1] (human, plasma, oral, human subjects, observed, read-out: terminal elimination half-life (converted)), 31 h. In data set [1] (human, plasma, oral, 150 mg, read-out: AUC (AUCss,24)), the AUC was 21100 ng·h/mL. In addition, the “clearance, predicted value” in data set [1] (human, predicted) is given as 10 L/h. Moreover, in data set [1] (human, predicted), the “terminal elimination half-life, predicted value” was 15 h. The same molecule gave a clearance in data set [1] (plasma, oral, human subjects, observed) of 78.3 mL/min. Besides, the “adverse event after the first dose” value in data set [1] (three CLL subjects, first cohort, initial dose 100-200 mg, 50 mg tablet form, all subjects) is reported as “tumor lysis syndrome”.

The Ki is the equilibrium dissociation constant of an inhibitor or competing ligand from its target. A lower Ki goes with higher affinity. The molecule `COCCON1C=C(Cl)C=C(S(=O)(=O)NC(=O)c2ccc(N3CCN(CC4=C(c5ccc(Cl)cc5)CC(C)(C)CC4)CC3)cc2Oc2cnc3[nH]ccc3c2)C1` [Compound 292, N-{[5-chloro-1-(2-methoxyethoxy)pyridin-3-yl]sulfonyl}-4-(4-{[2-(4-chlorophenyl)-4,4-dimethylcyclohex-1-en-1-yl]methyl}piperazin-1-yl)-2-(1H-pyrrolo[2,3-b]pyridin-5-yloxy)benzamide] gave an inhibition constant Ki on Bcl-2 protein of 0.19 nM.

As usually defined, the log D is lipophilicity at a set pH, counting ionised and neutral species. `CC1(C)CCC(CN2CCN(c3ccc(C(=O)NS(=O)(=O)c4ccc(NCC5CCC(C)(O)CC5)c([N+](=O)[O-])c4)c(Oc4cnc5[nH]ccc5c4)c3)CC2)=C(c2ccc(Cl)cc2)C1` (stereo not drawn) [Compound 337, 4-(4-{[2-(4-chlorophenyl)-4,4-dimethylcyclohex-1-en-1-yl]methyl}piperazin-1-yl)-N-[(4-{[(trans-4-hydroxy-4-methylcyclohexyl)methyl]amino}-3-nitrophenyl)sulfonyl]-2-(1H-pyrrolo[2,3-b]pyridin-5-yloxy)benzamide]: the “log D” value in data set [2] was found to be 5.48.

As for `CC1(C)CCC(CN2CCN(c3ccc(C(=O)NS(=O)(=O)c4ccc(NCC5CCC(C)(O)CC5)c([N+](=O)[O-])c4)c(Oc4cnc5[nH]ccc5c4)c3)CC2)=C(c2ccc(Cl)cc2)C1` (stereo not drawn) [Compound 338, 4-(4-{[2-(4-chlorophenyl)-4,4-dimethylcyclohex-1-en-1-yl]methyl}piperazin-1-yl)-N-[(4-{[(cis-4-hydroxy-4-methylcyclohexyl)methyl]amino}-3-nitrophenyl)sulfonyl]-2-(1H-pyrrolo[2,3-b]pyridin-5-yloxy)benzamide], the pH-dependent lipophilicity (log D) in data set [2] was determined as 5.67.

Turning to `CC1(O)CCC(COc2ncc(S(=O)(=O)NC(=O)c3ccc(N4CCN(CC5=C(c6ccc(Cl)cc6)CC6(CC5)CC6)CC4)cc3Oc3cnc4[nH]ccc4c3)cc2Cl)CC1` (stereo not drawn) [Compound 341, N-({5-chloro-6-[(trans-4-hydroxy-4-methylcyclohexyl)methoxy]pyridin-3-yl}sulfonyl)-4-(4-{[5-(4-chlorophenyl)spiro[2.5]oct-5-en-6-yl]methyl}piperazin-1-yl)-2-(1H-pyrrolo[2,3-b]pyridin-5-yloxy)benzamide], on Bcl-2 protein, the inhibition constant Ki was < 0.01 nM.

As for `CC1(C)CCC(CN2CCN(c3ccc(C(=O)NS(=O)(=O)c4cnc(OCC5(F)CCC(O)CC5)c(Cl)c4)c(Oc4cnc5[nH]ccc5c4)c3)CC2)=C(c2ccc(Cl)cc2)C1` (stereo not drawn) [Compound 350, N-({5-chloro-6-[(cis-1-fluoro-4-hydroxycyclohexyl)methoxy]pyridin-3-yl}sulfonyl)-4-(4-{[2-(4-chlorophenyl)-4,4-dimethylcyclohex-1-en-1-yl]methyl}piperazin-1-yl)-2-(1H-pyrrolo[2,3-b]pyridin-5-yloxy)benzamide], the Ki at Bcl-2 protein was < 0.01 nM.

The molecule `CC1(C)CCC(CN2CCN(c3ccc(C(=O)NS(=O)(=O)c4ccc(OCC5CCC(C)(O)CC5)c(Cl)c4)c(Oc4cnc5[nH]ccc5c4)c3)CC2)=C(c2ccc(Cl)cc2)C1` (stereo not drawn) [Compound 362, N-({3-chloro-4-[(trans-4-hydroxy-4-methylcyclohexyl)methoxy]phenyl}sulfonyl)-4-(4-{[2-(4-chlorophenyl)-4,4-dimethylcyclohex-1-en-1-yl]methyl}piperazin-1-yl)-2-(1H-pyrrolo[2,3-b]pyridin-5-yloxy)benzamide] gave an inhibitory constant (Ki) at Bcl-2 protein of 0.016 nM.

Take `CC1(C)CCC(CN2CCN(c3ccc(C(=O)NS(=O)(=O)c4cnc(NCC5CCC(C)(O)CC5)c([N+](=O)[O-])c4)c(Oc4cnc5[nH]ccc5c4)c3)CC2)=C(c2ccc(Cl)cc2)C1` (stereo not drawn) [Compound 371, 4-(4-{[2-(4-chlorophenyl)-4,4-dimethylcyclohex-1-en-1-yl]methyl}piperazin-1-yl)-N-[(6-{[(trans-4-hydroxy-4-methylcyclohexyl)methyl]amino}-5-nitropyridin-3-yl)sulfonyl]-2-(1H-pyrrolo[2,3-b]pyridin-5-yloxy)benzamide]: the Ki on Bcl-2 protein is < 0.001 nM.

On to `CC1(C)CCC(CN2CCN(c3ccc(C(=O)NS(=O)(=O)c4cnc(NCC5CCC(C)(O)CC5)c([N+](=O)[O-])c4)c(Oc4cnc5[nH]ccc5c4)c3)CC2)=C(c2ccc(Cl)cc2)C1` (stereo not drawn) [Compound 376, 4-(4-{[2-(4-chlorophenyl)-4,4-dimethylcyclohex-1-en-1-yl]methyl}piperazin-1-yl)-N-[(6-{[(cis-4-hydroxy-4-methylcyclohexyl)methyl]amino}-5-nitropyridin-3-yl)sulfonyl]-2-(1H-pyrrolo[2,3-b]pyridin-5-yloxy)benzamide], for which the Ki at Bcl-2 protein was < 0.001 nM.

Consider `COC1(C)CCC(c2ccc(Cl)cc2)=C(CN2CCN(c3ccc(C(=O)NS(=O)(=O)c4ccc(NCC5CCC(C)(O)CC5)c([N+](=O)[O-])c4)c(Oc4cnc5[nH]ccc5c4)c3)CC2)C1` (stereo not drawn) [Compound 377, 4-(4-{[2-(4-chlorophenyl)-5-methoxy-5-methylcyclohex-1-en-1-yl]methyl}piperazin-1-yl)-N-[(4-{[(trans-4-hydroxy-4-methylcyclohexyl)methyl]amino}-3-nitrophenyl)sulfonyl]-2-(1H-pyrrolo[2,3-b]pyridin-5-yloxy)benzamide], for which the Ki on Bcl-2 protein was < 0.001 nM.
